Values of other authors, collected in patent US20110091452A1, “4,5-Dihydromacbecin Derivatives and Their Use in the Treatment of Cancer or B-Cell Malignancies” (priority 2006, published 2011).

Legend:
Hsp90 = Hsp90 (Homo sapiens, UniProt P07900)
bacteria and fungi = settings: in vitro
[1] = target: terminal deoxynucleotidyl transferase (Homo sapiens, UniProt P04053)
terminal deoxynucleotidyl transferase, sequence (P04053 whole entry, species assumed): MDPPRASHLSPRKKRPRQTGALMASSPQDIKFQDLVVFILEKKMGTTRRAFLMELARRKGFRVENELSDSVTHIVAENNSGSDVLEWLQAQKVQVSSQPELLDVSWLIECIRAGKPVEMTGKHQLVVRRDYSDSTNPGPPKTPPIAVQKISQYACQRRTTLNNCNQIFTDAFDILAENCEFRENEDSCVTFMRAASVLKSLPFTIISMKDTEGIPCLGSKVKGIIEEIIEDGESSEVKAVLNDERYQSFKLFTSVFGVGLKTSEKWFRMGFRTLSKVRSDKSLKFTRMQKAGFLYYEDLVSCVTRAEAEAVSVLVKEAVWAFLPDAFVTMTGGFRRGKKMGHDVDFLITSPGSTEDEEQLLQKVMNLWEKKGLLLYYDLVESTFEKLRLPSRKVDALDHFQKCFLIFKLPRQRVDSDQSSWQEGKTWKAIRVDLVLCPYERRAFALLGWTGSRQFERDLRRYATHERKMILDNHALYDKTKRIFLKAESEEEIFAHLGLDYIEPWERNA

## CO[C@H]1C[C@H](C)Cc2cc(O)cc(c2)NC(=O)/C=C/CC[C@H](OC)[C@@H](OC(N)=O)/C(C)=C/[C@H](C)[C@H]1O [KOSN1559]
Hsp90; relative to 17-AAG
  binding affinity to Hsp90, greater than 17-AAG: 8 fold
Hsp90; relative to geldanamycin
  binding affinity to Hsp90, greater than geldanamycin: 4 fold

## COC1=C2C[C@@H](C)C[C@H](OC)[C@H](O)[C@@H](C)/C=C(\C)[C@H](OC(N)=O)[C@@H](OC)/C=C\C=C(/C)C(=O)NC(=CC1=O)C2=O [geldanamycin]
Bacteria and fungi
  activity against bacteria and fungi: weak activity
protozoa
  activity in vitro against protozoa: strong activity

## CO[C@H]1[C@@H](OC)C[C@H](C)[C@@H](OC)C2=CC(=O)C=C(NC(=O)/C(C)=C/C=C\[C@H](C)[C@@H](OC(N)=O)/C(C)=C/[C@@H]1C)C2=O [macbecin]
Reverse transcriptase
  inhibition of reverse transcriptase activity: not inhibited
[1]
  inhibition of terminal deoxynucleotidyl transferase activity: not inhibited
